Experimental data: US9359348B2, “Cyclopropyl imidazopyridine PDE10 inhibitors” (Merck Sharp & Dohme Corp., priority 2012, dated 2016)
pKi: −log10 of the molar value.

Molecular target: human PDE10A2 (Homo sapiens (Human), UniProt Q9Y233)
Assay: PDE10 fluorescence polarization (IMAP FP) inhibition assay
Assay type: biochemical
Conditions: FAM-labeled cAMP 50 nM, room temperature
Procedure: The activity of the compounds in accordance with the present invention as PDE10 inhibitors may be readily determined without undue experimentation using a fluorescence polarization (FP) methodology that is well known in the art (Huang, W., et al., J. Biomol Screen, 2002, 7: 215).
In a typical experiment the PDE10 inhibitory activity of the compounds of the present invention was determined in accordance with the following experimental method. PDE10A2 was amplified from human fetal brain cDNA (Clontech, Mountain View, Calif.) using a forward primer corresponding to nucleotides 56-77 of human PDE10A2 (Accession No. AF127480, Genbank Identifier 4894716), containing a Kozak consensus sequence, and a reverse primer corresponding to nucleotides 2406-2413 of human PDE10A2 (Accession No. AF127480, Genbank Identifier 4894716). Amplification with Easy-A polymerase (Stratagene, La Jolla, Calif.) was 95° C. for 2 minutes followed by thirty three cycles of 95° C. for 40 seconds, 55° C. for 30 seconds, and 72° C. for 2 minutes 48 seconds. Final extension was 72° C. for 7 minutes. The PCR product was TA cloned into pcDNA3.2-TOPO (Invitrogen, Carlsbad, Calif.) according to standard protocol. AD293 cells with 70-80% confluency were transiently transfected with human PDE10A2/pcDNA3.2-TOPO using Lipofectamine 2000 according to manufacturer specifications (Invitrogen, Carlsbad, Calif.). Cells were harvested 48 hours post-transfection and lysed by sonication (setting 3, 10×5 sec pulses) in a buffer containing 20 mM HEPES, 1 mM EDTA and protease inhibitor cocktail (Roche). Lysate was collected by centrifugation at 75,000 xg for 20 minutes. Supernatant containing the cytoplasmic fraction was used for evaluation of PDE10A2 activity. The fluorescence polarization assay for cyclic nucleotide phosphodiesterases was performed using an IMAP® FP kit supplied by Molecular Devices, Sunnyvale, Calif. (product # R8139). IMAP® technology has been applied previously to phosphodiesterase assays (Huang, W., et al., J. Biomol Screen, 2002, 7: 215). Assays were performed at room temperature in 384-well microtiter plates with an incubation volume of 20.2 μL. Solutions of test compounds were prepared in DMSO and serially diluted with DMSO to yield 8 μL of each of 10 solutions differing by 3-fold in concentration, at 32 serial dilutions per plate. 100% inhibition is determined using a known PDE10 inhibitor, which can be any compound that is present at 5,000 times its Ki value in the assay described as follows, such as papaverine (see Siuciak, et al. Neuropharmacology (2006) 51:386-396; Becker, et al. Behav Brain Res (2008) 186(2):155-60; Threlfell, et al., J Pharmacol Exp Ther (2009) 328(3):785-795), 2-{4-[pyridin-4-yl-1-(2,2,2-trifluoroethyl)-1H-pyrazol-3-yl]phenoxymethyl}quinoline succinic acid or 2-[4-(1-methyl-4-pyridin-4-yl-1H-pyrazol-3-yl)-phenoxymethyl]quinoline succinic acid (see Schmidt, et al. J Pharmacol Exp Ther (2008) 325:681-690; Threlfell, et al., J Pharmacol Exp Ther (2009) 328(3): 785-795). 0% of inhibition is determined by using DMSO (1% final concentrations).
A Labcyte Echo 555 (Labcyte, Sunnyvale, Calif.) is used to dispense 200 nL from each well of the titration plate to the 384 well assay plate. A solution of enzyme (1/1600 dilution from aliquots; sufficient to produce 20% substrate conversion) and a separate solution of FAM-labeled cAMP PDE from Molecular Devices (product # R7506), at a final concentration of 50 nM are made in the assay buffer (10 mM Tris HCl, pH 7.2, 10 mM MgCl2, 0.05% NaN3 0.01% Tween-20, and 1 mM DTT). The enzyme and the substrate are then added to the assay plates in two consecutive additions of 10 μL, and then shaken to mix. The reaction is allowed to proceed at room temperature for 30 minutes. A binding solution is then made from the kit components, comprised of 80% Solution A, 20% Solution B and binding reagent at a volume of 1/600 the total binding solution. […]

human PDE10A2, sequence (Q9Y233 267-1055): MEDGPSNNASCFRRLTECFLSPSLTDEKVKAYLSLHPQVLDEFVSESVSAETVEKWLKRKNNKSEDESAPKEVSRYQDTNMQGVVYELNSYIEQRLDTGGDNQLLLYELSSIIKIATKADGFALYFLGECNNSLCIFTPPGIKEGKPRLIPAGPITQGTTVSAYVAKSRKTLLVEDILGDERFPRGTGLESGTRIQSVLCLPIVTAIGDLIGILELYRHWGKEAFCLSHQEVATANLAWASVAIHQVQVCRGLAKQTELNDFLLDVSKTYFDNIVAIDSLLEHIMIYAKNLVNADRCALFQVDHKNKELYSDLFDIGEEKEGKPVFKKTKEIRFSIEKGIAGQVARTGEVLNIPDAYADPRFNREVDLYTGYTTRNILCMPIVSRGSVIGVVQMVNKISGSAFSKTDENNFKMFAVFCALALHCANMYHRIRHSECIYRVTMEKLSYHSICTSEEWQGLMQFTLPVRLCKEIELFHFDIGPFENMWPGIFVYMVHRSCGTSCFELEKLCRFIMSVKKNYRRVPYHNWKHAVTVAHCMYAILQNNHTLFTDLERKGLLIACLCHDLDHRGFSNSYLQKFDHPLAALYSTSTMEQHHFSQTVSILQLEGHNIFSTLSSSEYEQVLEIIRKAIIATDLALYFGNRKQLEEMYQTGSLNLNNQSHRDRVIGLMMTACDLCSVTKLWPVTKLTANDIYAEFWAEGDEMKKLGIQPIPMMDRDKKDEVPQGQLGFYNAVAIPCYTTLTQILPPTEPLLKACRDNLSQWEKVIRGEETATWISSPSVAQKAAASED

Structure (SMILES) | pKi
Cc1nc([C@@H]2C[C@H]2c2nc3ccccn3c2I)cc(-n2nc(C)nc2C)n1 (relative stereo) [Example 8, 2-((trans)-2-(6-(3,5-dimethyl-1H-1,2,4-triazol-1-yl)-2-methylpyrimidin-4-yl)cyclopropyl)-3-iodoimidazo[1,2-a]pyridine] | 8.05
Cc1nc([C@@H]2C[C@H]2c2nc3ccccn3c2C)cc(-n2nc(C)nc2C)n1 (relative stereo) [Example 9, 2-((trans)-2-(6-(3,5-dimethyl-1H-1,2,4-triazol-1-yl)-2-methylpyrimidin-4-yl)cyclopropyl)-3-methylimidazo[1,2-a]pyridine] | 8.68
Cc1nc([C@@H]2C[C@H]2c2nc3ccccn3c2C#N)cc(-n2nc(C)nc2C)n1 (relative stereo) [Example 11, 2-((trans)-2-(6-(3,5-dimethyl-1H-1,2,4-triazol-1-yl)-2-methylpyrimidin-4-yl)cyclopropyl)imidazo[1,2-a]pyridine-3-carbonitrile] | < 7.12
Cc1nc([C@@H]2C[C@H]2c2cn3cccc(F)c3n2)cc(-n2nc(C)nc2C)n1 (relative stereo) [Example 6, 2-((trans)-2-(6-(3,5-dimethyl-1H-1,2,4-triazol-1-yl)-2-methylpyrimidin-4-yl)cyclopropyl)-8-fluoroimidazo[1,2-a]pyridine] | < 7.12
Cc1nc([C@@H]2C[C@H]2c2cn3cccc(C)c3n2)cc(-n2nc(C)nc2C)n1 (relative stereo) [Example 5, 2-((trans)-2-(6-(3,5-dimethyl-1H-1,2,4-triazol-1-yl)-2-methylpyrimidin-4-yl)cyclopropyl)-8-methylimidazo[1,2-a]pyridine] | < 7.12
C=Cc1c([C@@H]2C[C@H]2c2cc(-n3nc(C)nc3C)nc(C)n2)nc2ccccn12 (relative stereo) [Example 10, 2-((trans)-2-(6-(3,5-dimethyl-1H-1,2,4-triazol-1-yl)-2-methylpyrimidin-4-yl)cyclopropyl)-3-vinylimidazo[1,2-a]pyridine] | 8.42
Cc1nc([C@@H]2C[C@H]2c2cn3ccc(F)cc3n2)cc(-n2nc(C)nc2C)n1 (relative stereo) [Example 7, 2-((trans)-2-(6-(3,5-dimethyl-1H-1,2,4-triazol-1-yl)-2-methylpyrimidin-4-yl)cyclopropyl)-7-fluoroimidazo[1,2-a]pyridine] | 7.89

Continued, values first:

pKi | Structure (SMILES)
7.62 | Cc1ccc2nc([C@@H]3C[C@H]3c3cc(-n4nc(C)nc4C)nc(C)n3)cn2c1 (relative stereo) [Example 3, 2-((trans)-2-(6-(3,5-dimethyl-1H-1,2,4-triazol-1-yl)-2-methylpyrimidin-4-yl)cyclopropyl)-6-methylimidazo[1,2-a]pyridine]
8.24 | Cc1nc([C@H]2C[C@@H]2c2cn3ccccc3n2)cc(-n2nc(C)nc2C)n1 (stereo in doubt) [Example 1, 2-((1S,2S)-2-(6-(3,5-dimethyl-1H-1,2,4-triazol-1-yl)-2-methylpyrimidin-4-yl)cyclopropyl)imidazo[1,2-a]pyridine]
7.36 | Cc1ccn2cc([C@@H]3C[C@H]3c3cc(-n4nc(C)nc4C)nc(C)n3)nc2c1 (relative stereo) [Example 4, 2-((trans)-2-(6-(3,5-dimethyl-1H-1,2,4-triazol-1-yl)-2-methylpyrimidin-4-yl)cyclopropyl)-7-methylimidazo[1,2-a]pyridine]
8.08 | Cc1nc([C@@H]2C[C@H]2c2cn3c(C)cccc3n2)cc(-n2nc(C)nc2C)n1 (relative stereo) [Example 2, 2-((trans)-2-(6-(3,5-dimethyl-1H-1,2,4-triazol-1-yl)-2-methylpyrimidin-4-yl)cyclopropyl)-5-methylimidazo[1,2-a]pyridine]
